Where two headings read alike, the source gives them in different places.
Key:
Type in all cases: physicochemical
[1] = Specific surface area by nitrogen adsorption isotherms (BET); settings: for Specific surface area: nitrogen adsorption isotherms, BET
Description: Specific surface area of the porous anhydrous crystalline trehalose was measured by the nitrogen adsorption isotherms using “MODEL ASAP-2400”, a specific surface area/pore size distribution analyzer commercialized by Micromeritics, Georgia, USA. […] The result was analyzed by the BET (Brunnauer, Emmet, and Teller) method. The commercial anhydrous crystalline trehalose, a reagent grade, commercialized by Hayashibara Biochemical Laboratories Inc., Okayama, Japan, was used as a control. […] Further, those pore size distribution charts are in FIG. 19. […] The results of the analysis on the specific surface area and the pore size distribution are summarized in Table 7, and the pore size distribution chart was in FIG. 24. As a control, “MALTOSE OM”, a hydrous crystalline maltose product with maltose purity of 98% or higher, produced by Hayashibara Co., Ltd., Okayama, Japan, was used.

[2] = Oil-keeping ability with salad oil; set-up: key to Oil-keeping ability: (5 g salad oil / g saccharide added at endpoint) x 100; settings: for Oil-keeping ability: (5 g salad oil / amount of added saccharide) x 100
Description: The oil-keeping ability of each crystalline saccharide was measured using the porous anhydrous crystalline trehalose prepared by treating at 70° C. for 60 min in Example 1, the control hydrous crystalline trehalose, and the control anhydrous crystalline trehalose as crystalline trehalose samples; and the porous anhydrous crystalline maltose prepared by the method in Example 3, the control hydrous crystalline β-maltose, and the control anhydrous crystalline α-maltose, and the control anhydrous crystalline β-maltose as crystalline maltose samples, and the results were compared.
The measurement of the oil-keeping ability of the crystalline saccharide was carried out according to the method disclosed in Japanese Patent Kokai No. 31,650/84. Five grams of “NISSHIN SALAD OIL”, a salad oil commercialized by Nisshin OiliO Group, Ltd., Tokyo, Japan, was placed in a 50-ml plastic container, and then gradually admixed with each powdery crystalline saccharide with stirring. […] When the amount of the mixed saccharide is further increased, the agglomerate increase in solidity and then loosen. The point that the agglomerate is loosened is estimated to be the endpoint and the oil-keeping ability was calculated using the following formula. Oil-Keeping Ability =(The amount of salad oil(5 g)/the amount of added PCS*)×100 *: Powdery crystalline saccharide tm Formula 1

[3] = Pore size distribution by the mercury filling method; settings: for Median pore diameter: control maltose values are from space between particles, not pores
[4] = Dissolution test against cold water at 10° C.; settings: for Time required for dissolution, No. 1 / Time required for dissolution, No. 2 / Time required for dissolution, No. 3 / Time required for dissolution, No. 4 / Time required for dissolution, No. 5 / Time required for dissolution, Average: 20 ml water 10° C., about 300 rpm, 0.5 g trehalose or 0.2 g maltose; for Time required for dissolution, Average: average of 5; for Dissolution in cold water in comparison with controls: cold water 10° C.
Description: A dissolution test against cold water at 10° C. was carried out using the porous anhydrous crystalline trehalose prepared by treating at 70° C. for 60 min in Example 1, the porous anhydrous crystalline maltose prepared by the method in Example 3, and the porous hydrous crystalline maltose prepared by the method in Example 5, as samples. The results were compared with those of the controls, anhydrous crystalline trehalose, hydrous crystalline trehalose, and hydrous crystalline maltose.
Twenty milliliters of 10° C.-cold water was placed in a test tube with an internal diameter of 18 mm, and then stirred using a stirring bar. A crystalline saccharide sample was put into the test tube, and the time required for the complete dissolution (for the disappearance of precipitate particles) was measured. The amount of samples was set to be 0.5 g in the case of trehalose and to be 0.2 g in the case of maltose, and the stirring rate was set to be about 300 rpm in any case. The measurement of time for dissolution under the above conditions was carried out 5-times at each sample.

[5] = Crystal moisture content (Karl Fischer) on moisture absorption and drying
Description: Hydrous crystalline saccharides were prepared from the respective porous anhydrous crystalline saccharide using the porous anhydrous crystalline trehalose, obtained by treating at 70° C. for 60 min in Example 1, and the porous anhydrous crystalline maltose, obtained by treating at 70° C. for 480 min in Example 3, as materials. About 50 g of the porous anhydrous crystalline saccharide and about 150 ml of deionized water were placed in respective container. Then, the both open containers were placed in the same closed vessel and leaved to stand at 27° C. for two days. By the treatment, the anhydrous crystalline saccharide was allowed to absorb moisture and converted into hydrous crystal. The resulting hydrous crystal was dried in a drying machine at 50° C. for one hour to remove excess moisture. The moisture contents of the porous anhydrous crystalline trehalose and the porous anhydrous crystalline maltose before and after the treatment to absorb moisture and after drying are in Table 6. The moisture content of crystals was measured by the conventional Karl Fischer's method.

[6] = listed as porous anhydrous crystalline maltose
[7] = listed as Porous anhydrous crystalline β-maltose (Present invention)
[8] = listed as porous hydrous crystalline maltose
[9] = listed as Porous hydrous crystalline β-maltose (Present invention)

Row | Structure (SMILES) | Specific surface area [1] [m^2/g] | Oil-keeping ability [2] | Intrusion volume [3] | Median pore diameter [3] [μm] | Time required for dissolution, No. 1 [4] [s] | Time required for dissolution, No. 2 [4] [s] | Time required for dissolution, No. 3 [4] [s] | Time required for dissolution, No. 4 [4] [s] | Time required for dissolution, No. 5 [4] [s] | Time required for dissolution, Average [4] [s] | Pore diameter of clear peak in pore size distribution chart [3] | Dissolution in cold water in comparison with controls [4] | further results
1 | OC[C@H]1O[C@H](O[C@H]2[C@H](O)[C@@H](O)C(O)O[C@@H]2CO)[C@H](O)[C@@H](O)[C@@H]1O (mixture of isomers) [Anhydrous crystalline α-maltose (Control)] [reference compound] | 0.48 | 41.7 | (No pore) | 13.00 | 37 | 35 | 39 | 38 | 36 | 37 |  |  | Specific surface area ([1]; listed as anhydrous crystalline α-maltose): 0.48 m^2/g
2 | OC[C@H]1O[C@H](O[C@H]2[C@H](O)[C@@H](O)C(O)O[C@@H]2CO)[C@H](O)[C@@H](O)[C@@H]1O (mixture of isomers) [Anhydrous crystalline β-maltose (Control)] [reference compound] | 0.82 | 40 | (No pore) | 14.70 |  |  |  |  |  |  |  |  | Specific surface area ([1]; listed as anhydrous crystalline β-maltose): 0.82 m^2/g
3 | OC[C@H]1O[C@H](O[C@H]2[C@H](O)[C@@H](O)C(O)O[C@@H]2CO)[C@H](O)[C@@H](O)[C@@H]1O (mixture of isomers) [Hydrous crystalline β-maltose (Control), maltose] | 0.46 |  | (No pore) | 11.20 | 118 | 113 | 114 | 119 | 116 | 116 |  |  | Specific surface area ([1]; listed as control hydrous crystalline β-maltose): 0.46 m^2/g; Specific surface area ([1]; listed as hydrous crystalline β-maltose): 0.46 m^2/g; Oil-keeping ability ([2]; listed as Hydrous crystalline maltose (Control)): 45.5
4 | OC[C@H]1O[C@H](O[C@H]2[C@H](O)[C@@H](O)C(O)O[C@@H]2CO)[C@H](O)[C@@H](O)[C@@H]1O (mixture of isomers) [Porous anhydrous crystalline maltose, maltose] | 3.39 |  | 1.05 mL/g | 1.26 |  |  |  |  |  |  | less than 5 μm | rapidly dissolved in cold water | Specific surface area [1, 6]: 3.39 m^2/g; Oil-keeping ability [2, 7]: 143; Oil-keeping ability ([2]; listed as porous anhydrous crystalline β-maltose): 143; Oil-keeping ability relative to control ([2]; compared with control crystalline saccharide): about 3 folds; Intrusion volume [3, 6]: 1.05 mL/g; Crystal moisture content, after drying ([5]; after moisture absorption and drying at 50° C. for one hour): 5.14 %, w/w; Crystal moisture content, before treatment ([5]; before moisture absorption): 0.32 %, w/w; Crystal moisture content, after treatment ([5]; closed vessel with water, 27° C., two days): 7.35 %, w/w; Time required for dissolution, No. 1 [4, 7]: 30 s; Time required for dissolution, No. 2 [4, 7]: 31 s; Time required for dissolution, No. 3 [4, 7]: 33 s; Time required for dissolution, No. 4 [4, 7]: 29 s; Time required for dissolution, No. 5 [4, 7]: 32 s; Time required for dissolution, Average [4, 7]: 31 s
5 | OC[C@H]1O[C@H](O[C@H]2[C@H](O)[C@@H](O)C(O)O[C@@H]2CO)[C@H](O)[C@@H](O)[C@@H]1O (mixture of isomers) [Porous hydrous crystalline maltose, maltose] | 1.39 |  | 0.77 mL/g | 2.82 |  |  |  |  |  |  | less than 5 μm | rapidly dissolved in cold water | Specific surface area relative to control crystalline saccharide ([1]; compared with control(s)): about 3 folds; Specific surface area [1, 8]: 1.39 m^2/g; Intrusion volume [3, 8]: 0.77 mL/g; Time required for dissolution, No. 1 [4, 9]: 67 s; Time required for dissolution, No. 2 [4, 9]: 66 s; Time required for dissolution, No. 3 [4, 9]: 64 s; Time required for dissolution, No. 4 [4, 9]: 68 s; Time required for dissolution, No. 5 [4, 9]: 65 s; Time required for dissolution, Average [4, 9]: 66 s
6 | OC[C@H]1O[C@H](O[C@H]2O[C@H](CO)[C@@H](O)[C@H](O)[C@H]2O)[C@H](O)[C@@H](O)[C@@H]1O [Porous anhydrous crystalline trehalose (treated at 50° C. fo] [α-D-glucosyl α-D-glucoside] | 3.306 |  | 0.22 mL/g | 0.21 |  |  |  |  |  |  |  |  | Mode pore diameter [3]: 0.29 μm; Remarks (pores) [3]: Having clear pores
